Tests used:
MBT-2 tumor = experiment: MBT-2 syngeneic tumor model; format: in vivo; conditions: MBT-2 in C3H mice, oral BID, FIG. 7A
Procedure: To test potential immunomodulatory activity of Compound 1 in vivo, antitumor efficacy studies were performed in syngeneic tumor models.
MBT-2 cells were obtained from the Japanese Collection of Research Bioresources Cell Bank and were maintained in DMEM supplemented with 10% FBS. MC38 cells were obtained from the NCI. 4T1 cells were obtained from ATCC and maintained in RPMI media supplemented with 10% FBS. For MBT-2 experiments, 5×10^5 MBT-2 cells were inoculated subcutaneously into the right hind flank of 6- to 8-week-old C3H mice or athymic nude mice (Charles River Laboratories, Wilmington, Mass.). For MC38 studies, 12-week old female C57BL/6 mice were inoculated with brei of MC38 tumors (in-vivo passage 6) into the right hind flank. For 4T1 studies, 7.5×10^5 4 T1 cells were inoculated subcutaneously into the right hind flank of 6- to 8-week-old female BALB/c mice or athymic nude mice (Charles River Laboratories). […] Mice were monitored for tumor growth and overt tolerability over the course of the experiment. […] Tumor volume was calculated using the formula (L×W^2)/2, where L and W refer to the length and width dimensions, respectively. Tumor growth inhibition (TGI) was calculated using the formula (1−(VT/VC))×100, where VT is the tumor volume of the treatment group on the last day of treatment, and VC is the tumor volume of the control group on the last day of treatment. […]

179 kinases (c-Met) = experiment: Comprehensive kinase study (179 kinases); format: biochemical; conditions: evaluated at 200 nM
Procedure: Compound 1 was also evaluated at 200 nM in a comprehensive kinase study, which included 179 kinases. […] The mode of inhibition with respect to ATP concentration was evaluated using a MER kinase assay.

SMILES: CC(C)C(=O)N1CCC(c2cc(-c3ccc(NC(=O)c4cn(C(C)C)c(=O)n(-c5ccccn5)c4=O)cc3)c3c(N)ncnn23)CC1 [Compound 1, N-(4-(4-Amino-7-(1-isobutyrylpiperidin-4-yl)pyrrolo[1,2-f][1,2,4]triazin-5-yl)phenyl)-1-isopropyl-2,4-dioxo-3-(pyridin-2-yl)-1,2,3,4-tetrahydropyrimidine-5-carboxamide]
- antitumor efficacy (tumor volume) (MBT-2 tumor): dose-dependent efficacy
- inhibition of other kinases (179 kinases (c-Met)): did not inhibit any other kinases
- selectivity for AXL and MER compared to c-Met (179 kinases (c-Met)): approximately 60 fold

— patent publication US12214036B2, “Combination therapy comprising AXL/MER and PD-1/PD-L1 inhibitors” (Incyte Corporation, priority 2020, dated 2025)
